Test results taken from paper PMC5668913 (Biochemistry and Biophysics Reports, 2015).

Target: T1, MbRIP1 (type 1 ribosome inactivating protein from Momordica balsamina) (Momordica balsamina, UniProt D9J2T9)
T1 sequence (D9J2T9 1-246): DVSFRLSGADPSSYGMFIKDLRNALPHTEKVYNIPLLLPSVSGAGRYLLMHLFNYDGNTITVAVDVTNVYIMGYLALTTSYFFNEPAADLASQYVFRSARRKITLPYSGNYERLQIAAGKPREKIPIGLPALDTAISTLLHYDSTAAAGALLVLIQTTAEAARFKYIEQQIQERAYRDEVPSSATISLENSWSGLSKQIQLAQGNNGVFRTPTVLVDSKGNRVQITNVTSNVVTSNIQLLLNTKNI
Assay: Binding studies using fluorescence

Compound	Kd [µM]
Nc1ccn([C@@H]2O[C@H](CO)[C@@H](O)[C@H]2O)c(=O)n1 [CYT, cytidine]	~5
Nc1cc[nH]c(=O)n1 [CYS, cytosine]	~230
